Source: patent US12509460B2 (Skyhawk Therapeutics, Inc., priority 2019, dated 2025)
Where two headings read alike, the source gives them in different places.

Key:
[1] = Quantitative splicing assay (HTT), qPCR; assay type: cell-based, human; conditions: Homo sapiens, GM04724, 24 h, GM04724 lymphoblasts, read-out: HTT Splicing: E49-50 EC50
Summary of the method: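 TaqMan qPCR on cell-lysate cDNA quantifies cryptic-exon inclusion from HTT intron 49. Lymphoblasts plated at 50,000 cells/well had received compound for 24 h, 0.15 nM-2.5 uM range, 0.1% DMSO.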

[2] = test system: mHTT protein in GM04724 (CAG 70/20) Huntington's disease patient lymphoblast cells; test: mHTT protein assay, 2B7-MW1 assay via Mesoscale Discovery (MSD); assay type: cell-based, human
Summary of the method: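 Signal from the 2B7-MW1 antibody pair on MSD, rising with polyQ length and smaller HTT fragments, measured mHTT after 48 h compound exposure (0.6 nM–10 μM) in GM04724 cells. A parallel replicate plate gave CellTiter Glo viability.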

[3] = test system: SMN FL and SMN Δ7 in spinal muscular atrophy (SMA) patient fibroblasts (GM03813, Coriell); test: Quantitative splicing assay (SMN), qPCR; assay type: cell-based, human; conditions: Homo sapiens, Fibroblast, 24 h, read-out: SMN2 Splicing FL EC50
Experimental: Spinal muscular atrophy (SMA) patient fibroblasts (GM03813, Coriell) are plated in 96-well plates at 50,000 cells/well. […] Treated cells are lysed and cDNA synthesized using the Fast Advanced Cells-to-Ct kit (Thermofisher A35378) according to the manufacturer's instructions. 2 μL of each cDNA are used in qPCR reactions. […] Reactions are run in a Quant Studio 6 qPCR instrument with default settings.

[4] = test system: SMN protein in spinal muscular atrophy (SMA) patient fibroblasts (GM03813, Coriell); test: SMN protein assay, Mesoscale Discovery (MSD); assay type: cell-based, human; conditions: read-out: SMN2 protein EC50
Summary of the method: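 Absolute SMN levels were quantified by MSD against an SMN protein standard curve (1 μg/ml to 19.5 pg/ml) run on each plate. Samples were lysates of GM03813 patient fibroblasts (7000 cells/well) treated 48 hours with compound doses from 2.5 μM down to 0.6 nM.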

MDR1 (P-gp) = test: Blood-brain-barrier (BBB) penetration potential via MDCK-MDR1 permeability assay; conditions: dog; for Papp A→B at 120 min, 5 μM: MDCK-MDR1, pH 7.4, MDCK-MDR1: Papp A-B; for Papp B→A at 120 min, 5 μM: MDCK-MDR1, pH 7.4, MDCK-MDR1: Papp B-A
[5] = test system: MDR1-MDCK cell monolayers; test: as above
MDR1 = test: as above; conditions: dog, MDCK-MDR1, pH 7.4, MDCK-MDR1: Efflux
[6] = GM04724 Huntington's disease patient lymphoblasts
[7] = SMA patient fibroblasts GM03813, 24 h, qPCR
[8] = SMA patient fibroblasts GM03813, 48 hours, MSD

Row | SMILES | EC50 ([1]; qPCR) | EC50 [2, 6] | EC50 [3, 7] | EC50 [4, 8] | Papp A→B at 120 min, 5 μM (MDR1 (P-gp); A-B direction) | Papp B→A at 120 min, 5 μM (MDR1 (P-gp); B-A direction) | MDCK-MDR1: % Recov A-B ([5]; A-B direction) | MDCK-MDR1: % Recov B-A ([5]; B-A direction) | efflux ratio at 120 min, 5 μM (MDR1; efflux ratio) | EC50 [1] | EC50 ([2]; GM04724 (CAG 70/20) Huntington's disease patient lymphoblasts) | EC50 ([3]; SMA patient fibroblasts (GM03813)) | EC50 ([4]; SMA patient fibroblasts (GM03813), 48 hours) | Papp A→B at 120 min, 5 μM (MDR1 (P-gp); A-B) | Papp B→A at 120 min, 5 μM (MDR1 (P-gp); B-A) | MDCK-MDR1: % Recov A-B ([5]; A-B) | MDCK-MDR1: % Recov B-A ([5]; B-A) | efflux ratio at 120 min, 5 μM (MDR1)
1 | CN(c1ccc(-c2cc3cnn(C)c3cc2O)nn1)[C@@H]1C[C@H]2CC[C@H](N2)[C@@H]1F [Compound 76A, 5-(6-(((1S,2S,3R,5R)-2-fluoro-8-azabicyclo[3.2.1]octan-3-yl)(methyl)amino)pyridazin-3-yl)-1-methyl-1H-indazol-6-ol] | 101 to 500 nM | 16 to 50 nM | 101 to 500 nM | 16 to 50 nM | 5.55 ×10⁻⁶ cm/s | 69.2 ×10⁻⁶ cm/s | 83% | 88% | 12 | – | – | – | – | – | – | – | – | –
2 | CN(c1ccc(-c2cc3c(=O)n(C)ccc3cc2O)nn1)[C@H]1C[C@@H]2CC[C@@H](N2)[C@H]1F [Compound 83B, 7-(6-(((1R,2R,3S,5S)-2-fluoro-8-azabicyclo[3.2.1]octan-3-yl)(methyl)amino)pyridazin-3-yl)-6-hydroxy-2-methylisoquinolin-1(2H)-one] | 0.01 to 15 nM | 0.01 to 15 nM | 0.01 to 15 nM | 0.01 to 15 nM | 1.43 ×10⁻⁶ cm/s | 44.4 ×10⁻⁶ cm/s | 77% | 72% | 31 | – | – | – | – | – | – | – | – | –
3 | CN(c1ccc(-c2cc3c(=O)n(C)ccc3cc2O)nn1)[C@H]1C[C@@H]2CC[C@H]([C@H]1F)N2C [Compound 98B, 7-(6-(((1R,2R,3S,5S)-2-fluoro-8-methyl-8-azabicyclo[3.2.1]octan-3-yl)(methyl)amino)pyridazin-3-yl)-6-hydroxy-2-methylisoquinolin-1(2H)-one] | – | – | – | – | – | – | – | – | – | 16 to 50 nM | 16 to 50 nM | 16 to 50 nM | 16 to 50 nM | 5.01 ×10⁻⁶ cm/s | 52.6 ×10⁻⁶ cm/s | 88% | 87% | 10
4 | CN(c1ccc(-c2ccc(-c3cnccn3)cc2O)nn1)[C@H]1C[C@@H]2CCC[C@@H](N2)[C@H]1F [Compound 24B, 2-(6-(((1R,2R,3S,5S)-2-fluoro-9-azabicyclo[3.3.1]nonan-3-yl)(methyl)amino)pyridazin-3-yl)-5-(pyrazin-2-yl)phenol] | 0.01 to 15 nM | 0.01 to 15 nM | 0.01 to 15 nM | 0.01 to 15 nM | 5.99 ×10⁻⁶ cm/s | 33.8 ×10⁻⁶ cm/s | 73% | 91% | 6 | – | – | – | – | – | – | – | – | –
5 | CN(c1ccc(-c2ccc(-n3ccnc3)cc2O)nn1)[C@@H]1C[C@H]2CC[C@H](N2)[C@@H]1F [Compound 4A, 2-(6-(((1S,2S,3R,5R)-2-fluoro-8-azabicyclo[3.2.1]octan-3-yl)(methyl)amino)pyridazin-3-yl)-5-(1H-imidazol-1-yl)phenol] | 16 to 50 nM | 16 to 50 nM | 51 to 100 nM | 0.01 to 15 nM | 2.75 ×10⁻⁶ cm/s | 44.8 ×10⁻⁶ cm/s | 86% | 73% | 16 | – | – | – | – | – | – | – | – | –
6 | Cc1cnc(-c2ccc(-c3ccc(N(C)[C@H]4C[C@@H]5CCC[C@@H](N5)[C@H]4F)nn3)c(O)c2)cn1 [Compound 26B, 2-(6-(((1R,2R,3S,5S)-2-fluoro-9-azabicyclo[3.3.1]nonan-3-yl)(methyl)amino)pyridazin-3-yl)-5-(5-methylpyrazin-2-yl)phenol] | 51 to 100 nM | 0.01 to 15 nM | 51 to 100 nM | 0.01 to 15 nM | 2.76 ×10⁻⁶ cm/s | 45.1 ×10⁻⁶ cm/s | 60% | 81% | 16 | – | – | – | – | – | – | – | – | –
7 | CN(c1ccc(-c2ccc(C3=CCCC3)cc2O)nn1)[C@H]1C[C@@H]2CC[C@@H](N2)[C@H]1F [Compound 34B, 5-(cyclopent-1-en-1-yl)-2-(6-(((1R,2R,3S,5S)-2-fluoro-8-azabicyclo[3.2.1]octan-3-yl)(methyl)amino)pyridazin-3-yl)phenol] | 51 to 100 nM | 51 to 100 nM | 16 to 50 nM | 16 to 50 nM | 1.02 ×10⁻⁶ cm/s | 2.81 ×10⁻⁶ cm/s | 12% | 48% | 3 | – | – | – | – | – | – | – | – | –
